Laboratory results as given in patent US20080269348A1, “Novel Arylbicyclo[3.1.0]Hexylamines And Methods And Compositions For Their Preparation And Use” (priority 2006, published 2008).

Key:
[1] = molecular target: T1, dopamine (DA) uptake (Rattus norvegicus, UniProt P23977); assay: biochemical; conditions: read-out: Uptake Inhibition % at 500 nM DA
T1 construct: synaptosomal preparations were made from either whole brain (5-HT), striatum (DA) or hypothalamus (NE); from tissue; host or cells: rat striatum synaptosomes
T1 sequence (P23977 whole entry): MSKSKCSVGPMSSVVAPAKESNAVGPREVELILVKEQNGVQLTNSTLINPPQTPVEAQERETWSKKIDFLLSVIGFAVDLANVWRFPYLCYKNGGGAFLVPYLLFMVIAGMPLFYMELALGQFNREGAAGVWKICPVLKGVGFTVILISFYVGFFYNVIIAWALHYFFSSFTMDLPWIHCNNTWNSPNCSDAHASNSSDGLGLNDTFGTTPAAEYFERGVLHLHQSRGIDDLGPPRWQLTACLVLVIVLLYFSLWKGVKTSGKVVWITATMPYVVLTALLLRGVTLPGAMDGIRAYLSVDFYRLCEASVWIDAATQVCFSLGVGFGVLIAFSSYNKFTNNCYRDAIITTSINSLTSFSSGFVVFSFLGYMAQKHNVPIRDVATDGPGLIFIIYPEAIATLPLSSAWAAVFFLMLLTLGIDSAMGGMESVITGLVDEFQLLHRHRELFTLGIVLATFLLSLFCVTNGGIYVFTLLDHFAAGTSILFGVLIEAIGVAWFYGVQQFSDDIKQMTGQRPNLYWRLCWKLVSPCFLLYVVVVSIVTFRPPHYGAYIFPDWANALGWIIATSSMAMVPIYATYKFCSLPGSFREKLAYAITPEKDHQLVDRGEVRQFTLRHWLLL
Experimental: (§1) The effects of arylbicyclo[3.1.0]hexylamines of the invention for inhibiting transport of norepinephrine (NE) and/or dopamine (DA) and/or serotonin (5-HT) were evaluated using preparations of synaptosomes from different regions of the rat brain according to previously-reported techniques.
(§2) Whole brains were obtained from normal rats, and synaptosomal preparations were made from either whole brain (5-HT), striatum (DA) or hypothalamus (NE) by gentle disruption in 10 volumes (w/v) of 0.32 M sucrose (0-4° C.) using a Teflon-glass homogenizer. The homogenate was then centrifuged at 1000×g for 10 min. The supernatant was retained and centrifuged at 23000 g for 20 min. The resulting pellet was gently resuspended in 200 volumes of 0.32 M sucrose (0-4° C.) using a teflon-glass homogenizer. Aliquots (250 μL) of this preparation were added to tubes, along with 0.2 μCi/mL of [^3H]5-HT, [^3H]DA, or [^3H]NE, 200 μL of selected 1-arylbicyclo[3.1.0]hexanamine test compounds (to yield final concentrations of 500 nM) and 1 mL of Krebs-Ringer bicarbonate buffer (pH 7.4). […] At the end of this period, the assay was terminated by rapid filtration over Whatman GF/C glass fiber filters. The filters were rinsed 3 times with 4 ml of Krebs-Ringer bicarbonate buffer (0-4° C.), and the radioactivity retained on the filters was measured by liquid scintillation spectrometry.

[2] = molecular target: T2, serotonin (5-HT) uptake (Rattus norvegicus, UniProt P31652); assay: biochemical; conditions: read-out: Uptake Inhibition % at 500 nM 5-HT
T2 construct: synaptosomal preparations were made from either whole brain (5-HT), striatum (DA) or hypothalamus (NE); from tissue; host or cells: rat whole brain synaptosomes
T2 sequence (P31652 whole entry): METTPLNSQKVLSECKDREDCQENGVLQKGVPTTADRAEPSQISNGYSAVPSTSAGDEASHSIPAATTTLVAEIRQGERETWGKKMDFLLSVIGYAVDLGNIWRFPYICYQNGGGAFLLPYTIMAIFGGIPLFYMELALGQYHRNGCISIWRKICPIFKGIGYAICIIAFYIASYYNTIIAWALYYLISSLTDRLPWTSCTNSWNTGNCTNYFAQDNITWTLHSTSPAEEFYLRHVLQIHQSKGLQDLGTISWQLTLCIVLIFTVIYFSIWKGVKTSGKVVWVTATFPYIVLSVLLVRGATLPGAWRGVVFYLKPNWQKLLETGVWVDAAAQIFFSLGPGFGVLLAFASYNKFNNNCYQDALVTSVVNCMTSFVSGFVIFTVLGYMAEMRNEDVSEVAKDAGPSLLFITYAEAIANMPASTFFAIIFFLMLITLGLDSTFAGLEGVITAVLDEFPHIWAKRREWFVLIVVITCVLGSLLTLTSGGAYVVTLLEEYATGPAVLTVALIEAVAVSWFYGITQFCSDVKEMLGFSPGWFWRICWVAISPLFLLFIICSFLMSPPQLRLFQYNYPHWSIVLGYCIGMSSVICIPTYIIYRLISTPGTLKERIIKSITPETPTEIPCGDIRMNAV
Experimental: as §1, §2

[3] = molecular target: T3, norepinephrine (NE) uptake (Rattus norvegicus, UniProt Q63380); assay: Inhibition of [3H]NE uptake in rat hypothalamus synaptosomes; assay type: biochemical; conditions: 500 nM, 20 min at 37° C.
T3 construct: synaptosomal preparations were made from either whole brain (5-HT), striatum (DA) or hypothalamus (NE); from tissue; host or cells: rat hypothalamus synaptosomes
T3 sequence (Q63380 1-617): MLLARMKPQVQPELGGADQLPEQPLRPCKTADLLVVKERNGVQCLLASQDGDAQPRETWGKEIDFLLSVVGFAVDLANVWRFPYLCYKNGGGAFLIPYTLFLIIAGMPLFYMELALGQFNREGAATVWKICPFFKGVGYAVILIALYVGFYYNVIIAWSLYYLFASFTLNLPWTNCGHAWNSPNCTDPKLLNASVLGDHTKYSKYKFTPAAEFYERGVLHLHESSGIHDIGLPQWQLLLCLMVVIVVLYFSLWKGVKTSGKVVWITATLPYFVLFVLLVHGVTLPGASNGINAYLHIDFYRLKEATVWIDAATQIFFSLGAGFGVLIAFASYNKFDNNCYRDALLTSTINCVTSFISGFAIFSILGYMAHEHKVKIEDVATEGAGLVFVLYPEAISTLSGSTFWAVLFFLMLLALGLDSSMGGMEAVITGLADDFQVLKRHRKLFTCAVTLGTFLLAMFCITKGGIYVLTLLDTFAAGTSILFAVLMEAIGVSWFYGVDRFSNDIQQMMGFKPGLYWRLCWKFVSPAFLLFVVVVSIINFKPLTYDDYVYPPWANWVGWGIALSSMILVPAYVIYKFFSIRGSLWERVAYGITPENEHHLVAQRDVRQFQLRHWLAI
Experimental: as §1, §2

NC1C[C@H]2C[C@]2(c2ccc(Cl)c(Cl)c2)C1 (stereo partly drawn)
inhibition at 0.5 µM [1]: 83% | inhibition at 0.5 µM [2]: 75% | inhibition at 0.5 µM [3]: 59%

NC1C[C@H]2C[C@]2(c2cccc3ccccc23)C1 (stereo partly drawn) [5-p-tolylbicydo[3.1.0]hexan-2-amine]
inhibition at 0.5 µM [1]: 39% | inhibition at 0.5 µM [2]: 74% | inhibition at 0.5 µM [3]: 42%
